In one assay the test system is MDA-MB-231 (breast). Kind of assay: MTT in vitro cytotoxic activity assay, MDA-MB-231. The conditions noted are these: Homo sapiens, 96 h incubation, read-out: Cytotoxicity activity, MDA-MB-231 (breast). The class given is cell-based. On the procedure:
(§1) Compounds 1-16 were screened for their in vitro cytotoxic behavior using a 3-(4,5-dimethyl-thiazol-2-yl)-2,5-diphenyltetrazolium bromide (MTT) assay against selected cancer human cell lines consisting of PC3 (prostate), HCT116 (colon), A375 (melanoma), H1299 (lung), MIAPaCa-2 (pancreas), HL60 (leukemia), MCF7 (breast), MDA-MB-231 (breast) (T. Mosmann, J. Immunol. Meth., 1983, 65, 55-63). The cells were cultured at 37° C. in RMPI1640 medium supplemented with 10% fetal bovine serum, 50 IU/mL penicillin, and 50 μg/mL streptomycin in a 5% CO2 incubator. All cells were sub-cultured 3 times/week by trypsinisation. Viable cells were seeded and allowed to adhere for 12 h before a test drug was added in 96-well plates at an initial density of 1.0×10^5 cells/mL. Tumor cell lines were separately exposed to various concentrations of the tested compounds followed by incubation at a temperature of 37° C. during 96 h inside a medium of fresh RMPI 1640. Cells were subsequently incubated at 37° C. using MTT at 0.5 mg/mL for 4 hours. After removal of supernatant, formazan crystals were dissolved in isopropanol and the optical density was measured at 570 nm. CX-4945 was used as a positive control.

Assay [1] has as its target T1, recombinant human CK2 (RRBB-holoenzyme) (Homo sapiens, UniProt P68400).
T1 construct: purchased Millipore
In words: CK2 Kinase Assay (33P-ATP, substrate peptide RRRDDDSDDD). The conditions noted are these: final ATP concentration 15 μM, 10 min at 30° C.; read-out: protein kinase CK2 activity IC50. In kind it is biochemical. On the procedure:
CK2 Kinase Assay was conducted using the previously described protocol (Pierre F. et al; J. Med. Chem. 2011, 54, 635-654). The tested compounds in aqueous solution were added at a volume of 10 μL to a reaction mixture comprising 10 μL of assay dilution buffer (ADB; 20 mM MOPS, pH 7.2, 25 mM β-glycerol phosphate, 5 mM EGTA, 1 mM sodium orthovanadate, and 1 mM dithiothreitol), 10 μL of substrate peptide (RRRDDDSDDD, dissolved in ADB at a concentration of 1 mM), 10 μL of recombinant human CK2 (RRBB-holoenzyme, 25 ng dissolved in ADB; Millipore). Reactions were initiated by the addition of 10 μL of ATP solution (90% 75 mMMgCl2, 75 μM ATP (final ATP concentration: 15 μM) dissolved in ADB; 10% [γ-33P] ATP (stock 1 mCi/100 μL; 3000 Ci/mmol (Perkin-Elmer) and maintained for 10 min at 30° C. The reactions were quenched with 100 μL of 0.75% phosphoric acid and then transferred to and filtered through a phosphor cellulose filter plate (Millipore). After washing each well five times with 0.75% phosphoric acid, the plate was dried under vacuum for 5 min and, following the addition of 15 μL of scintillation fluid to each well, the residual radioactivity was measured using a Wallac […] counter. The IC50 values were derived from eight concentrations of test inhibitors.

For the next assay, the system named is PC3 (prostate). In words: MTT in vitro cytotoxic activity assay, PC3. The class given is cell-based. The conditions noted are these: Homo sapiens, 96 h incubation, read-out: Cytotoxicity activity, PC3 (prostate). On the procedure:
as §1

The subject of the next assay is A375 (melanoma). In words: MTT in vitro cytotoxic activity assay, A375. The class given is cell-based. The conditions noted are these: Homo sapiens, A-375, 96 h incubation, read-out: Cytotoxicity activity, A375 (melanoma). How it is done:
as §1

A further assay relates to HL60 (leukemia). In words: MTT in vitro cytotoxic activity assay, HL60. The class given is cell-based. The settings on record: Homo sapiens, HL-60, 96 h incubation, read-out: Cytotoxicity activity, HL60 (leukemia). How it is done:
as §1

The subject of a further assay is HCT116 (colon). In words: MTT in vitro cytotoxic activity assay, HCT116. The conditions noted are these: Homo sapiens, HCT-116, 96 h incubation, read-out: Cytotoxicity activity, HCT116 (colon). The class given is cell-based. On the procedure: as §1
Assay [2] concerns various human cancer cell lines. Kind of assay: MTT in vitro cytotoxic activity assay, panel of human cancer cell lines. The class given is cell-based. The settings on record: MCF7, MDA-MB-231, H1299, PC3, HCT116, A375, MIAPaCa-2, HL60. How it is done:
as §1

A further assay deals with H1299 (lung). In words: MTT in vitro cytotoxic activity assay, H1299. The conditions noted are these: Homo sapiens, NCI-H1299, 96 h incubation, read-out: Cytotoxicity activity, H1299 (lung). The class given is cell-based. On the procedure: as §1
The next assay relates to MIAPaCa-2 (pancreas). Kind of assay: MTT in vitro cytotoxic activity assay, MIAPaCa-2. The class given is cell-based. The settings on record: Homo sapiens, MIA PaCa-2, 96 h incubation, read-out: Cytotoxicity activity, MIAPaCa-2 (pancreas). How it is done: as §1
Another assay has as its system MCF7 (breast). Kind of assay: MTT in vitro cytotoxic activity assay, MCF7. In kind it is cell-based. The conditions noted are these: Homo sapiens, 96 h incubation, read-out: Cytotoxicity activity, MCF7 (breast). How it is done:
as §1

T1 sequence (P68400 whole entry): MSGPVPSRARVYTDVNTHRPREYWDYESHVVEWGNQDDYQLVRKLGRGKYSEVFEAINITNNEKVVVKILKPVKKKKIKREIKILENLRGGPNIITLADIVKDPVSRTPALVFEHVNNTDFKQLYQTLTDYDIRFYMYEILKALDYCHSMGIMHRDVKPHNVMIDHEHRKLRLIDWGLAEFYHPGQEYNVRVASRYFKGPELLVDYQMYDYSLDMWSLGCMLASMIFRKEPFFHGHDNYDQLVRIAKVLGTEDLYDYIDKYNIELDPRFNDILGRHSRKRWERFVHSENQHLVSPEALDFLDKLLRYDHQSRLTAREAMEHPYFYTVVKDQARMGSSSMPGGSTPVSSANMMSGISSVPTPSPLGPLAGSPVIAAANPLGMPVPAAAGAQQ
T1 sequence (P67870 whole entry partner): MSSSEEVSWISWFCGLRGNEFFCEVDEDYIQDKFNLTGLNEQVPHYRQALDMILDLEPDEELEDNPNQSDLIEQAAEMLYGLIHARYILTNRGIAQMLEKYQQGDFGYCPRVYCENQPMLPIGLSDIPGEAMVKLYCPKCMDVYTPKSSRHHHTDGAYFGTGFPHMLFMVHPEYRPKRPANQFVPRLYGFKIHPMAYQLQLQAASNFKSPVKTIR

As to `O=C1Nc2c(nc(Nc3cccc(Cl)c3)c3cc(C(=O)O)ccc23)C1=O` [Compound 1, 5-((3-chlorophenyl)amino)-2,3-dioxo-2,3-dihydro-1H-pyrrolo[3,2-c]isoquinoline-7-carboxylic acid], the IC50 with MDA-MB-231 (breast) was determined as 3800 nM; in [1] it was 38 nM; in the assay with PC3 (prostate), 1100 nM; with A375 (melanoma) it was 3100 nM; in the assay on HL60 (leukemia) it was 3900 nM; in the assay with HCT116 (colon), 1500 nM. Besides, the IC50 was 1700 nM in the assay on H1299 (lung), 1100 nM in the assay on MIAPaCa-2 (pancreas) and 5400 nM with MCF7 (breast). The “in vitro anti-proliferative / anticancer activity against human cancer cell lines (in words)” value in assay [2] is listed as “promising in vitro anti-proliferative activity”.
